From PubChem BioAssay AID1963856 (Molecular Pharmacology Branch, DTP, NCI, 2024)

Test system: LG0567-F671-PDC KRAS tumor spheroid viability
Experiment: Anticancer human tumor LG0567-F671-PDC patient-derived lung adenocarcinoma cell line growth inhibition [KRAS2]
Settings: spheroids with HUVEC and MSC; for IC50: curve of first compound; for viability, T/C: stronger effect = lower value
Description: Multicellular complex tumor spheroid response to RAS pathway inhibitors in combination with a targeted agents in patient-derived cell lines with oncogenic KRAS variants from multiple cancer types
A high-throughput screen of multi-cell type tumor spheroids was designed to identify active combinations of targeted small molecules and KRAS pathway inhibitors. Complex spheroids include a stromal component modeled by human endothelial cells (HUVEC) and fibroblasts modeled by human mesenchymal stem cells (MSCs). The concentration ranges selected for each drug and investigational agent were based upon clinically achievable concentrations if the clinical Cmax of the agent was known.
Compounds. The drugs and investigational agents: BI-3406 (NSC825286), BAY-293 (NSC824723), batoprotafib (TNO155; NSC825523), sotorasib (AMG 510; NSC818433), MRTX1257 (NSC819558), elimusertib (BAY 1895344; NSC800525), molibresib (GSK525762; NSC774829), temuterkib (LY3214996; NSC803410), venetoclax (NSC766270), alisertib (NSC759677), olaparib (NSC753686), talazoparib (NSC767125), erdafitinib (NSC781556), ipatasertib (NSC767898), cabozantinib (NSC761068), nintedanib (NSC756659), abemaciclib (NSC768073), docetaxel (NSC628503), trametinib (NSC758246), and sapanisertib (NSC764658) were obtained from the National Cancer Institute (NCI) Developmental Therapeutics Program Chemical Repository. The FDA-approved anticancer drug set is available from the Developmental Therapeutics Program. […] The stock solutions were prepared in dimethyl sulfoxide (DMSO, Sigma-Aldrich, St. Louis, MO, cat. D2650) at 800-fold the tested concentration and stored at -70 degrees C prior to their use. All drugs and investigational agents were tested over a range starting from a high concentration at or near the clinical Cmax and decreasing in half-log increments. If the clinical Cmax for an agent had not been determined, the highest concentration tested was 10 microM.
Cell Culture. All cells were maintained in an incubator at 37 degrees C and 5% CO2 with 95% humidity. The PDC lines were cultured according to standard operating procedures established by the NCI PDMR (https://pdmr.cancer.gov/sops/default.htm). Briefly, all PDCs were thawed and cultured in Matrigel-coated flasks prepared with a working solution of 1X Ham's F-12 nutrient mix, without supplementation (Invitrogen, Waltham, MA, cat. 11765054), 100 U/mL penicillin-streptomycin (Invitrogen, cat. 15140122), and 2.5% Matrigel (Corning Inc., Corning, NY, cat. 354248) for the first three passages. All PDCs were cultured in complete DMEM/F-12 media containing advanced DMEM/F-12 (Invitrogen, cat. 12634028), 4.9% defined fetal bovine serum, heat inactivated (HyClone Laboratories Inc., Logan, UT, cat. SH30070.03HI), 389 ng/mL hydrocortisone (Sigma-Aldrich, cat. H4001), 9.7 ng/mL human EGF recombinant protein (Invitrogen, cat. PHG0313), 23.4 microg/mL adenine (Sigma-Aldrich, cat. A2786), 97.3 U/mL penicillin-streptomycin (Invitrogen, cat. 15140122), 1.9 mM L-glutamine (Invitrogen, cat. 25030081), and 9.7 microM Y-27632 dihydrochloride (Tocris Bioscience, Bristol, United Kingdom, cat. 1254). The PDCs were cultured in complete DMEM/F12 media without 9.7 microM Y-27632 dihydrochloride for at least two passages prior to the screen. The established cell line HOP-62 was cultured in RPMI 1640 medium, HEPES (Invitrogen, cat. 22400105) with 10% defined fetal bovine serum (HyClone Laboratories Inc., cat. SH30070.03) and 2 mM L-glutamine (Invitrogen, cat. 25030081). The pooled donor HUVEC were cultured in endothelial cell growth medium 2 (PromoCell, Heidelberg, Germany, cat. C-22011) and the hMSC were cultured in mesenchymal stem cell growth medium 2 (PromoCell, cat. C-28009). For all experiments, HUVEC and hMSC were used at passages </=5, while the malignant cell lines were used at passages </=15. […]

[1] = second compound 0.1 µM, first compound 0.0316 µM
[2] = second compound 0.1 µM, first compound 0.1 µM
[3] = second compound 0.316 µM, first compound 0.0316 µM
[4] = second compound 0.316 µM, first compound 0.1 µM
[5] = second compound 1 µM, first compound 0.0316 µM
[6] = second compound 1 µM, first compound 0.1 µM
[7] = second compound 3.16 µM, first compound 0.0316 µM
[8] = second compound 3.16 µM, first compound 0.1 µM
[9] = second compound 10 µM, first compound 0.0316 µM
[10] = second compound 10 µM, first compound 0.1 µM
[11] = second compound 0.1 µM, first compound 0.316 µM
[12] = second compound 0.1 µM, first compound 1 µM
[13] = second compound 0.1 µM, first compound 3.16 µM
[14] = second compound 0.1 µM, first compound 10 µM
[15] = second compound 0.316 µM, first compound 0.316 µM
[16] = second compound 0.316 µM, first compound 1 µM
[17] = second compound 0.316 µM, first compound 3.16 µM
[18] = second compound 0.316 µM, first compound 10 µM
[19] = second compound 1 µM, first compound 0.316 µM
[20] = second compound 1 µM, first compound 1 µM
[21] = second compound 1 µM, first compound 3.16 µM
[22] = second compound 1 µM, first compound 10 µM
[23] = second compound 3.16 µM, first compound 0.316 µM
[24] = second compound 3.16 µM, first compound 1 µM
[25] = second compound 3.16 µM, first compound 3.16 µM
[26] = second compound 3.16 µM, first compound 10 µM
[27] = second compound 10 µM, first compound 0.316 µM
[28] = second compound 10 µM, first compound 1 µM
[29] = second compound 10 µM, first compound 3.16 µM
[30] = second compound 10 µM, first compound 10 µM
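Further: drug exposure lasted seven days after spheroids formed for three days.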
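Wherever viability, T/C is given: 100% = DMSO vehicle control viability.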

Row | Compound | IC50 (second compound 0.1 µM) | IC50 (second compound 0.316 µM) | IC50 (second compound 1 µM) | IC50 (second compound 3.16 µM) | IC50 (second compound 10 µM) | viability, T/C [1] | viability, T/C [2] | viability, T/C [3] | viability, T/C [4] | viability, T/C [5] | viability, T/C [6] | viability, T/C [7] | viability, T/C [8] | viability, T/C [9] | viability, T/C [10] | viability, T/C [11] | viability, T/C [12] | viability, T/C [13] | viability, T/C [14] | viability, T/C [15] | other results
1 | CC(C)n1nc(-c2ccc3oc(N)nc3c2)c2c(N)ncnc21 + C=CC(=O)N1CCN(c2nc(=O)n(-c3c(C)ccnc3C(C)C)c3nc(-c4c(O)cccc4F)c(F)cc23)C(C)C1 | < 0.316 nM | < 0.316 nM | < 0.316 nM | < 0.316 nM | < 0.316 nM | 9.02% | 8.13% | 8.62% | 7.08% | 8.47% | 6.2% | 7.41% | 8.01% | 10.9% | 10.3% | – | – | – | – | – | viability, T/C (second compound 0.1 µM, first compound 0.000316 µM): 21.4%; viability, T/C (second compound 0.1 µM, first compound 0.001 µM): 17.1%; viability, T/C (second compound 0.1 µM, first compound 0.00316 µM): 14.8%; viability, T/C (second compound 0.1 µM, first compound 0.01 µM): 11.4%; viability, T/C (second compound 0.316 µM, first compound 0.000316 µM): 20.6%; viability, T/C (second compound 0.316 µM, first compound 0.001 µM): 20%; viability, T/C (second compound 0.316 µM, first compound 0.00316 µM): 17.2%; viability, T/C (second compound 0.316 µM, first compound 0.01 µM): 11%; viability, T/C (second compound 1 µM, first compound 0.000316 µM): 23.9%; viability, T/C (second compound 1 µM, first compound 0.001 µM): 14.5%; viability, T/C (second compound 1 µM, first compound 0.00316 µM): 14%; viability, T/C (second compound 1 µM, first compound 0.01 µM): 10.8%; viability, T/C (second compound 3.16 µM, first compound 0.000316 µM): 20.2%; viability, T/C (second compound 3.16 µM, first compound 0.001 µM): 15.8%; viability, T/C (second compound 3.16 µM, first compound 0.00316 µM): 12.9%; viability, T/C (second compound 3.16 µM, first compound 0.01 µM): 10.2%; viability, T/C (second compound 10 µM, first compound 0.000316 µM): 20.3%; viability, T/C (second compound 10 µM, first compound 0.001 µM): 16.8%; viability, T/C (second compound 10 µM, first compound 0.00316 µM): 13.4%; viability, T/C (second compound 10 µM, first compound 0.01 µM): 13.1%
2 | CC1(C)CCC(CN2CCN(c3ccc(C(=O)NS(=O)(=O)c4ccc(NCC5CCOCC5)c([N+](=O)[O-])c4)c(Oc4cnc5[nH]ccc5c4)c3)CC2)=C(c2ccc(Cl)cc2)C1 + C=CC(=O)N1CCN(c2nc(=O)n(-c3c(C)ccnc3C(C)C)c3nc(-c4c(O)cccc4F)c(F)cc23)C(C)C1 | < 31.6 nM | < 31.6 nM | < 31.6 nM | < 31.6 nM | < 31.6 nM | 31.9% | 28.1% | 27.2% | 28.8% | 27.2% | 28.5% | 29% | 28.6% | 25.8% | 26.3% | 26.2% | 25.7% | 11.7% | 2.83% | 25.4% | viability, T/C [16]: 23.1%; viability, T/C [17]: 16.5%; viability, T/C [18]: 6.09%; viability, T/C [19]: 25.9%; viability, T/C [20]: 22.8%; viability, T/C [21]: 11.2%; viability, T/C [22]: 3.32%; viability, T/C [23]: 27.6%; viability, T/C [24]: 27.1%; viability, T/C [25]: 11.1%; viability, T/C [26]: 2.68%; viability, T/C [27]: 24.9%; viability, T/C [28]: 25.6%; viability, T/C [29]: 5.1%; viability, T/C [30]: 6.11%
3 | COc1cc2nccc(Oc3ccc(NC(=O)C4(C(=O)Nc5ccc(F)cc5)CC4)cc3)c2cc1OC + C=CC(=O)N1CCN(c2nc(=O)n(-c3c(C)ccnc3C(C)C)c3nc(-c4c(O)cccc4F)c(F)cc23)C(C)C1 | < 31.6 nM | < 31.6 nM | < 31.6 nM | < 31.6 nM | < 31.6 nM | 24.2% | 20.6% | 21.5% | 19.1% | 22.3% | 23.9% | 21.8% | 23.4% | 18.3% | 18.4% | 21.3% | 18.9% | 10.8% | 48.9% | 17.1% | viability, T/C [16]: 14.9%; viability, T/C [17]: 9.77%; viability, T/C [18]: 51.1%; viability, T/C [19]: 17.6%; viability, T/C [20]: 17.3%; viability, T/C [21]: 9.01%; viability, T/C [22]: 55%; viability, T/C [23]: 20.3%; viability, T/C [24]: 16.8%; viability, T/C [25]: 8.81%; viability, T/C [26]: 50.4%; viability, T/C [27]: 17.6%; viability, T/C [28]: 13.7%; viability, T/C [29]: 10.7%; viability, T/C [30]: 29.2%
